Assay type in all cases: functional
The subject of assay [1] is Rattus norvegicus. The assay is described as follows: Percent protection against thioacetamide-induced toxicity in rats using glutamate oxaloacetate transaminase (GOT) when peroral administration of compound 6 mg/kg for 7 days. The settings on record: route oral.
For assay [2], the system named is Rattus norvegicus. Description: Percent protection against thioacetamide-induced toxicity in rats using glutamate dehydrogenase (GIDH) when peroral administration of compound 6 mg/kg for 7 days. Particulars: route oral.
Assay [3] is filed under the species Rattus norvegicus. The assay is described as follows: Percent protection against thioacetamide-induced toxicity in rats using acid phosphatase(ACP). More on the design: concentration or dose not given beside the values.
Assay [4] deals with Rattus norvegicus. The assay is described as follows: Percent protection against thioacetamide-induced toxicity in rats using alkaline phosphatase (ALP) when peroral administration of compound 6 mg/kg for 7 days. Particulars: route oral.
Assay [5] relates to Rattus norvegicus. The assay is described as follows: Percent protection against thioacetamide-induced toxicity in rats using glutamate pyruvate transaminase (GPT) when peroral administration of compound 6 mg/kg for 7 days. Particulars: route oral.
In assay [6] the test system is Rattus norvegicus. The assay is described as follows: Percent protection against thioacetamide-induced toxicity in rats using acid phosphatase(ACP) at peroral dose of 6 mg/kg for 7 days of compound. The settings on record: route oral.
The test system of assay [7] is Rattus norvegicus. Description: Percent protection in galactosamine-induced model using glutamate dehydrogenase(GIDH) when peroral administration of compound 6 mg/kg for 7 days. Particulars: route oral.
Assay [8] relates to Rattus norvegicus. The assay is described as follows: Percent protection in paracetamol-induced model using glutamate dehydrogenase(GIDH) when peroral administration of compound 6 mg/kg for 7 days. The settings on record: route oral.
For assay [9], the system named is Rattus norvegicus. The assay is described as follows: Percent protection in paracetamol-induced model using glutamate pyruvate transaminase(GPT) when peroral administration of compound 6 mg/kg for 7 days. The settings on record: route oral.
In assay [10] the test system is Rattus norvegicus. Description: Percent protection in carbon tetrachloride-induced model using glutamate pyruvate transaminase(GPT) when peroral administration of compound 6 mg/kg for 7 days. Particulars: route oral.
The subject of assay [11] is Rattus norvegicus. The assay is described as follows: Percent protection in alcohol-induced model using glutamate dehydrogenase(GIDH) when peroral administration of compound 6 mg/kg for 7 days. Particulars: route oral.
The subject of assay [12] is Rattus norvegicus. Description: Percent protection in alcohol-induced model using glutamate pyruvate transaminase(GPT) when peroral administration of compound 6 mg/kg for 7 days. Particulars: route oral.
Assay [13] concerns Rattus norvegicus. The assay is described as follows: Percent protection in galactosamine-induced model using glutamate oxaloacetate transaminase(GOT) when peroral administration of compound 6 mg/kg for 7 days. Particulars: route oral.
In assay [14] the test system is Rattus norvegicus. Description: Percent protection in galactosamine-induced model using glutamate pyruvate transaminase(GPT) when peroral administration of compound 6 mg/kg for 7 days. The settings on record: route oral.
For assay [15], the system named is Rattus norvegicus. Description: Percent protection in carbon tetrachloride-induced model using acid phosphatase(ACP) when peroral administration of compound 6 mg/kg for 7 days. The settings on record: route oral.
The test system of assay [16] is Rattus norvegicus. Description: Percent protection in alcohol-induced model using glutamate dehydrogenase(GIDH) when peroral administration of compound 12 mg/kg for 7 days. The settings on record: route oral.
Assay [17] concerns Rattus norvegicus. The assay is described as follows: Percent protection in carbon tetrachloride-induced model using glutamate dehydrogenase(GIDH) when peroral administration of compound 6 mg/kg for 7 days. Particulars: route oral.
The test system of assay [18] is Rattus norvegicus. The assay is described as follows: Percent protection in alcohol-induced model using glutamate pyruvate transaminase(GPT) at peroral dose of 12 mg/kg for 7 days. Particulars: route oral.
In assay [19] the test system is Rattus norvegicus. Description: Percent protection in alcohol-induced model using acid phosphatase(ACP) at peroral dose of 6 mg/kg for 7 days. The settings on record: route oral.
In assay [20] the test system is Rattus norvegicus. The assay is described as follows: Percent protection in galactosamine-induced model using alkaline phosphatase(ALP) when peroral administration of compound 6 mg/kg for 7 days. Particulars: route oral.
For assay [21], the system named is Rattus norvegicus. Description: Percent protection in carbon tetrachloride-induced model using alkaline phosphatase(ALP) when peroral administration of compound 6 mg/kg for 7 days. Particulars: route oral.
Assay [22] relates to Rattus norvegicus. Description: Percent protection in carbon tetrachloride-induced model using glutamate oxaloacetate transaminase(GOT) when peroral administration of compound 6 mg/kg for 7 days. Particulars: route oral.
In assay [23] the test system is Rattus norvegicus. Description: Percent protection in alcohol-induced model using alkaline phosphatase(ALP) when peroral administration of compound 12 mg/kg for 7 days. Particulars: route oral.
Assay [24] deals with Rattus norvegicus. The assay is described as follows: Percent protection in paracetamol-induced model using alkaline phosphatase(ALP) at peroral dose of 6 mg/kg for 7 days. Particulars: route oral.
Assay [25] concerns Rattus norvegicus. The assay is described as follows: Percent protection in paracetamol-induced model using glutamate oxaloacetate transaminase(GOT) when peroral administration of compound 6 mg/kg for 7 days. Particulars: route oral.
Assay [26] deals with Rattus norvegicus. Description: Percent protection in paracetamol-induced model using acid phosphatase(ACP) when peroral administration of compound 6 mg/kg for 7 days. Particulars: route oral.
In assay [27] the test system is Rattus norvegicus. The assay is described as follows: Percent protection in alcohol-induced model using alkaline phosphatase(ALP) when peroral administration of compound 6 mg/kg for 7 days. Particulars: route oral.
The subject of assay [28] is Rattus norvegicus. Description: Percent protection in alcohol-induced model using glutamate oxaloacetate transaminase(GOT) when peroral administration of compound 6 mg/kg for 7 days. The settings on record: route oral.
In assay [29] the test system is Rattus norvegicus. Description: Percent protection in alcohol-induced model using acid phosphatase(ACP) when peroral administration of compound 12 mg/kg for 7 days. The settings on record: route oral.
Assay [30] relates to Rattus norvegicus. The assay is described as follows: Percent protection in alcohol-induced model using glutamate oxaloacetate transaminase(GOT) when peroral administration of compound 12 mg/kg for 7 days. The settings on record: route oral.

Consider `CSc1cc(-c2ccc(Br)cc2)oc(=O)c1Br`, for which the Protection in [1] came to 47%; in [2], 28%; in assay [3], 72%; in assay [4], 15%; in assay [5] it was 18%.
In the case of `CSc1cc(-c2ccc(Br)cc2)oc(=O)c1Cl`, the Protection is 30% in assay [1]; 26% in assay [2]; 30% in assay [6]; 19% in [4]; 40% in assay [5].
Consider `CSc1cc(-c2cccnc2)oc(=O)c1C#N`, for which the Protection is 12% in assay [1]; 51% in [2]; 38% in assay [3]; 0% in assay [4]; 12% in [5].
In the case of `CSc1cc(-c2ccc(Cl)cc2)oc(=O)c1C(N)=O`, the Protection in [1] is recorded as 16%; in [2], 0%; in assay [3] it was 10%; in assay [4], 17%; in [5], 15%.
With `CSc1cc(-c2ccc(Cl)cc2)oc(=S)c1Br`, the Protection in assay [1] came to 25%; in assay [2] it was 20%; in [3], 0%; in [4], 36%; in assay [5], 0%.
Turning to `CSc1cc(-c2ccncc2)oc(=O)c1Br`, the Protection is reported as 48% in [1]; 16% in assay [2]; 53% in [3]; 12% in [4]; 0% in [5].
With `CSc1cc(-c2ccc(F)cc2)oc(=O)c1`, the Protection in [1] is 59%; in [2], 15%; in assay [3], 46%; in assay [4] it was 30%; in assay [5], 57%.
Taken in the same sequence, the figures for `CSc1cc(-c2ccc(Cl)cc2)oc(=O)c1Br` were 70%, 51%, 48%, 100% and 80%.
Turning to `CSc1cc(-c2ccc(Cl)cc2)oc(=O)c1`, the Protection is listed as 46% in [1]; 43% in assay [2]; 24% in assay [6]; 42% in assay [4]; 51% in assay [5].
As for `CCOC(=O)c1c(SC)c(C#N)c(-c2ccc(Br)cc2)oc1=O`, the Protection in assay [1] turned out to be 0%; in assay [2], 2%; in [3], 2%; in assay [4], 0%; in assay [5] it was 0%.
In the case of `CSc1cc(-c2ccc(Br)cc2)oc(=O)c1C#N`, the Protection worked out at 20% in assay [1]; 40% in [2]; 38% in [3]; 56% in assay [4]; 10% in [5].
Consider `CCOC(=O)c1c(SC)cc(-c2ccc(Cl)cc2)oc1=O`, for which the Protection came out at 23% in [1]; 17% in assay [2]; 0% in assay [6]; 11% in [4]; 31% in assay [5].
Consider `CSc1cc(-c2ccncc2)oc(=O)c1C#N`, for which the Protection in assay [1] was found to be 0%; in assay [2] it was 0%; in [6] it was 0%; in assay [4], 12%; in assay [5], 0%.
Take `CSc1cc(-c2ccco2)oc(=O)c1C#N`: the Protection came out at 71% in [1]; 15% in assay [2]; 0% in [3]; 19% in assay [4]; 72% in assay [5].
In the case of `CSc1cc(-c2cccs2)oc(=O)c1C#N`, the Protection is 37% in [1]; 100% in assay [2]; 10% in assay [3]; 33% in assay [4]; 74% in assay [5].
Take `CSc1cc(-c2ccc(Cl)cc2)oc(=O)c1Cl`: the Protection worked out at 36% in assay [1]; 27% in assay [2]; 38% in [6]; 40% in [4]; 51% in assay [5].
`CSc1cc(-c2ccc(F)cc2)oc(=O)c1C#N`: the Protection is given as 20% in [1]; 0% in [2]; 46% in assay [3]; 15% in assay [4]; 31% in assay [5].
With `CSc1cc(-c2ccc(Cl)cc2Cl)oc(=O)c1C#N`, the Protection in assay [1] turned out to be 37%; in assay [2] it was 65%; in [3], 61%; in assay [4], 33%; in assay [5], 45%.
For `CSc1cc(-c2ccc(F)cc2)oc(=O)c1Br`, the Protection in assay [1] worked out at 0%; in [2] it was 0%; in assay [6] it was 49%; in [4] it was 43%; in assay [5] it was 0%.
For `CSc1cc(-c2cccs2)oc(=O)c1Br`, the Protection in assay [1] is on record as 50%; in assay [2], 4%; in [3], 25%; in assay [4], 37%; in [5], 55%.
For `CCOC(=O)c1c(SC)c(C#N)c(-c2ccc(Cl)cc2)oc1=O`, the Protection in assay [1] is 14%; in assay [2] it was 16%; in [3] it was 30%; in assay [4] it was 0%; in [5] it was 19%.
Taken in the same sequence, the figures for `CSc1cc(-c2ccc(Cl)cc2)oc(=S)c1Cl` were 29%, 12%, 25%, 10% and 26%.
Regarding `COc1cc([C@H]2Oc3cc([C@H]4Oc5cc(O)cc(O)c5C(=O)[C@@H]4O)ccc3O[C@@H]2CO)ccc1O` [SILYBIN A], the Protection in [7] turned out to be 65%; in assay [8], 60%; in [9] it was 49%; in [10] it was 64%; in assay [11], 49%; in [12], 59%. The Protection in [13] came out at 47%; in assay [1], 50.14%; in assay [2], 38.81%; in assay [14], 45%; in [15], 57%; in assay [16], 59%. Also, the Protection in assay [17] was 51%; in [18], 78%; in [3], 61%; in assay [19], 49%; in assay [20], 33%; in assay [21] it was 51%. Also, the Protection in assay [22] came out at 48%; in [23], 77%; in assay [6], 43.25%; in assay [24] it was 50%; in assay [25] it was 46%; in assay [26], 67%. The Protection in assay [27] came out at 62%; in [28], 43%; in assay [4], 47%; in assay [29], 64%; in [30], 62%; in assay [5] it was 47.25%.
